Measurements as given in US5684127A, “Tetrapeptides deriving from dalbaheptide antibiotics” (Gruppo Lepetit SpA, priority 1995, dated 1997).
In brackets after ≈: the same amount, converted by molar mass.

Experiments:
Assay in all cases: in vitro antibacterial activity, MIC in microtiter
[1] = system: S. aurens Smith (L 819); type: cell-based; settings: Iso-Sensitest broth, 0.01% bovine serum albumin, 37° C. 18-24 hours
Description: The in vitro antibacterial activity of the compounds is determined by means of standard […] tests in microtiter. Iso-Sensitest broth (Oxoid) is used for all bacteria except streptococci (Todd-[…] broth, Difco) and enterococci (Mueller-Hinton, Difco). Broth cultures are diluted so that the final inoculum is about 5×10^5 cfu/ml (colony forming units per ml).

[2] = system: Staph. aureus Tour (L 165); type: cell-based; settings: Iso-Sensitest broth, 0.01% bovine serum albumin, 37° C. 18-24 hours
Description: (§1) The in vitro antibacterial activity of the compounds is determined by means of standard […] tests in microtiter. Iso-Sensitest broth (Oxoid) is used for all bacteria except streptococci (Todd-Wewitt broth, Difco) and enterococci (Mueller-Hinton, Difco). Broth cultures are diluted so that the final inoculum is about 5×10^5 cfu/ml (colony forming units per ml). All broth microdilution MICs are performed in the presence of 0.01% bovine serum albumin (Pentax fraction V, Sigma).

[3] = system: Enterococcus faecalis ATCC 7,080 (L 149); type: cell-based; settings: Mueller-Hinton, 0.01% bovine serum albumin, 37° C. 18-24 hours
Description: as §1

[4] = system: S. epidermidis ATCC 12,228 (L 147); type: cell-based; settings: Iso-Sensitest broth, 0.01% bovine serum albumin, 37° C. 18-24 hours
Description: as §1

[5] = system: Strep. pyogenes C203 (L 49); type: cell-based; settings: Todd-Wewitt broth, 0.01% bovine serum albumin, 37° C. 18-24 hours
Description: as §1

[6] = system: Strep. pneumoniae UC41 (L 44); type: cell-based; settings: Todd-Wewitt broth, 0.01% bovine serum albumin, 37° C. 18-24 hours
Description: as §1

[7] = system: S. haemolyticus clin, isol. (L 602); type: cell-based; settings: Iso-Sensitest broth, 0.01% bovine serum albumin, 37° C. 18-24 hours
Description: as §1

[8] = system: S. aureus clin. isol. (L 561); type: cell-based; settings: Iso-Sensitest broth, 0.01% bovine serum albumin, 37° C. 18-24 hours
Description: as §1

[9] = system: S. epidermidis clin. isol. (L 533); type: cell-based; settings: Iso-Sensitest broth, 0.01% bovine serum albumin, 37° C. 18-24 hours
Description: as §1

[10] = system: E. faecalis clin. isol. (L 502); type: cell-based, Enterococcus faecalis; settings: Mueller-Hinton, 0.01% bovine serum albumin, 37° C. 18-24 hours
Description: as §1

Compound | MIC [1] | MIC [2] | MIC [3] | MIC [4] | MIC [5] | MIC [6] | MIC [7] | MIC [8] | MIC [9] | MIC [10]
N[C@H]1C(=O)N[C@@H]2Cc3ccc(c(Cl)c3)Oc3cc4cc(c3O)Oc3ccc(cc3Cl)[C@@H](O)[C@@H]3NC(=O)[C@H](NC(=O)[C@@H]4NC(=O)[C@@H](NC2=O)c2cc(O)cc(c2)Oc2cc1ccc2O)c1ccc(O)c(c1)-c1c(O)cc(O)cc1[C@@H](C(=O)O)NC3=O [teicoplanin aglycon] | 0.06 µg/mL (≈ 0.05 µM) | 0.13 µg/mL (≈ 0.108 µM) | 0.13 µg/mL (≈ 0.108 µM) | 0.06 µg/mL (≈ 0.05 µM) | 0.13 µg/mL (≈ 0.108 µM) | 0.13 µg/mL (≈ 0.108 µM) | 0.25 µg/mL (≈ 0.209 µM) | 0.13 µg/mL (≈ 0.108 µM) | 0.016 µg/mL (≈ 0.0133 µM) | 
(L-phenylalanyl)^3 -(D-lysyl)^15 -aglucoteicoplanin dalbaheptide methyl ester | 0.13 µg/mL | 0.13 µg/mL | 0.5 µg/mL | 0.13 µg/mL | 0.25 µg/mL | 0.13 µg/mL | 0.5 µg/mL | 0.06 µg/mL | 0.13 µg/mL | 16 µg/mL
teicoplanin | 0.25 µg/mL | 0.13 µg/mL | 0.13 µg/mL | 8 µg/mL | 0.13 µg/mL | 0.13 µg/mL | 32 µg/mL | 8 µg/mL | 8 µg/mL | 
